Patent publication US20170065564A1, “BIS-CYCLIC GUANIDINE COMPOUND COMPOSITIONS, METHODS OF USE AND TREATMENT THEREOF” (University of South Florida, priority 2014, published 2017)

How the values were obtained:
Type in all cases: cell-based
Acinetobacter baumannii = experiment: MIC micro broth dilution assay; set-up: key to stacked score activity, 100/MIC, A: stacked score = 100/MIC; details: A. baumannii
Experimental: (§1) For this study we used a representative panel of multi-drug resistant clinical ESKAPE pathogen isolates (Supplemental Table S6).^42 43 3a, 44 45 Gram-positive organisms were grown in tryptic soy broth media (TSB), whilst Gram-negative organisms were grown in lysogeny Broth (LB), as described by us previously. ^43 MIC and MBC determination assays.
(§2) Broth cultures of ESKAPE strains were grown overnight before being diluted 1 in 1,000 in fresh media. Sterile 96-well plates were loaded with culture and compounds (in DMF) were added at decreasing concentrations to equal a total volume of 200 μl per well. Care was taken to not add more than 2.0% DMF to any well. Plates were then incubated at 37° C., and MICs determined after 24 hours by visual inspection for a lack of turbidity in wells. All assays were performed in triplicate with identical results obtained. For both the scaffold ranking and positional scanning samples, relative broad-spectrum activity was determined via stacked scores: […]

Klebsiella pneumoniae = experiment: MIC micro broth dilution assay; set-up: key to stacked score activity, 100/MIC, K: stacked score = 100/MIC; details: K. pneumoniae
Experimental: as §1, §2

Staphylococcus aureus = experiment: MIC micro broth dilution assay; set-up: key to stacked score activity, 100/MIC, S: stacked score = 100/MIC; details: S. aureus
Experimental: as §1, §2

ESKAPE pathogens = experiment: MIC micro broth dilution assay, statements and stacked scores over all ESKAPE pathogens; details: for pathogens against which the compound showed activity at 4 ug/ml / pathogens against which the compound showed activity at 5 ug/ml / pathogens against which the compound showed activity at 10 ug/ml / pathogens against which the compound showed activity at 25 ug/ml: letters E,S,K,A,P,E = ESKAPE pathogens, — = none; for stacked score Total: stacked score over all ESKAPE pathogens (details in Table S4b); for Total stacked score: sum over all six ESKAPE pathogens
Experimental: as §1
as §2, with “The minimum inhibitory concentration (MIC) for the combinatorial libraries, deconvolved 2157 library, and individual compounds were determined as follows. Broth” for “Broth”

Enterococcus faecium = experiment: MIC micro broth dilution assay; set-up: key to stacked score activity, 100/MIC, E: stacked score = 100/MIC; details: E. faecium
Experimental: as §1, §2

Enterobacter cloacae = experiment: MIC micro broth dilution assay; set-up: key to stacked score activity, 100/MIC, E: stacked score = 100/MIC; details: E. cloacae
Experimental: as §1, §2

Row | Structure (SMILES) | stacked score activity, 100/MIC, A (Acinetobacter baumannii) | stacked score activity, 100/MIC, K (Klebsiella pneumoniae) | stacked score activity, 100/MIC, S (Staphylococcus aureus) | pathogens against which the compound showed activity at 4 ug/ml (ESKAPE pathogens) | pathogens against which the compound showed activity at 5 ug/ml (ESKAPE pathogens) | pathogens against which the compound showed activity at 10 ug/ml (ESKAPE pathogens) | pathogens against which the compound showed activity at 25 ug/ml (ESKAPE pathogens) | stacked score activity, 100/MIC, E (Enterococcus faecium) | stacked score activity, 100/MIC, E (Enterobacter cloacae) | stacked score Total (ESKAPE pathogens) | Total stacked score (ESKAPE pathogens)
1 | CCCCCCCN1C(=N)N(CCCC[C@H]2CNC(=N)N2CCCCC2CCCCC2)C[C@@H]1CCCC [Compound 10] | 25 | 20 | 25 | ESAP | ESKAPE | ESKAPE | ESKAPE | 25 | 20 |  | 
2 | CCCCCCCN1C(=N)NC[C@@H]1CCCCN1C[C@@H](CCC)N(CCc2cccc(C)c2)C1=N [Compound 35] | 4 | 0 | 10 |  |  |  | ESAP | 4 | 0 |  | 
3 | CCCCC1CN(CCCCC2CNC(=N)N2CCC23CC4CC(CC(C4)C2)C3)C(=N)N1CCc1ccc(-c2ccccc2)cc1 (centres unmarked) [Compound 21] | 25 | 20 | 20 |  | ESKAPE | ESKAPE | ESKAPE | 33 | 20 | 123 | 123
4 | CCCCCCCN1C(=N)N(CCCC[C@H]2CNC(=N)N2CCc2cccc(C(F)(F)F)c2)C[C@H]1Cc1cccc2ccccc12 [Compound 4] | 25 | 20 | 25 | ESA | ESKAE | ESKAE | ESKAPE | 33 | 20 |  | 
5 | N=C1NC[C@H](CCCCN2C[C@@H](Cc3cccc4ccccc34)N(CCCCC3CCCCC3)C2=N)N1CCCCC1CCCCC1 [Compound 14] | 20 | 20 | 20 |  | SKAE | ESKAE | ESKAPE | 10 | 20 |  | 
6 | N=C1NC[C@H](CCCCN2C[C@H](CC3CCCCC3)N(CCCCC3CCCCC3)C2=N)N1CCc1cccc(C(F)(F)F)c1 [Compound 8] | 20 | 20 | 10 |  | EKAPE | ESKAPE | ESKAPE | 20 | 20 |  | 
7 | N=C1NC[C@H](CCCCN2C[C@H](CC3CCCCC3)N(CCc3ccc(-c4ccccc4)cc3)C2=N)N1CCc1cccc(C(F)(F)F)c1 [Compound 9] | 20 | 20 | 20 |  | ESKAPE | ESKAPE | ESKAPE | 25 | 20 |  | 
8 | N=C1NC[C@H](CCCCN2C[C@H](CC3CCCCC3)N(CCc3ccc(-c4ccccc4)cc3)C2=N)N1CCC12CC3CC(CC(C3)C1)C2 [Compound 27] | 4 | 20 | 20 |  | SKP | ESKPE | ESKAPE | 10 | 10 |  | 
9 | CCCC[C@H]1CN(CCCC[C@H]2CNC(=N)N2CCCCC2CCCCC2)C(=N)N1CCc1ccc(-c2ccccc2)cc1 [Compound 12] | 25 | 20 | 20 |  | ESKAE | ESKAPE | ESKAPE | 20 | 20 |  | 
10 | CCCCC1CN(CCCCC2CNC(=N)N2CCC23CC4CC(CC(C4)C2)C3)C(=N)N1CCCCC1CCCCC1 (centres unmarked) [Compound 20] | 25 | 20 | 20 | EAP | ESKAPE | ESKAPE | ESKAPE | 50 | 20 | 160 | 160
11 | CCCCCCCN1C(=N)N(CCCC[C@H]2CNC(=N)N2CCC23CC4CC(CC(C4)C2)C3)C[C@H]1Cc1cccc2ccccc12 [Compound 22] | 25 | 20 | 20 | EAP | ESKAE | ESKAE | ESKAPE | 25 | 20 |  | 
12 | CCCCCCCN1C(=N)N(CCCC[C@H]2CNC(=N)N2CCCCC2CCCCC2)C[C@H]1Cc1cccc2ccccc12 [Compound 13] | 20 | 20 | 20 |  | ESKAE | ESKAE | ESKAPE | 20 | 20 |  | 
13 | N=C1NC[C@H](CCCCN2C[C@H](CC3CCCCC3)N(CCCCC3CCCCC3)C2=N)N1CCC12CC3CC(CC(C3)C1)C2 [Compound 26] | 20 | 20 | 20 |  | ESKAPE | ESKAPE | ESKAPE | 20 | 20 |  | 
